Reference: US9757428B2, “Designed peptides for tight junction barrier modulation” (University of Rochester, priority 2013, dated 2017)
Where no end group is shown, it is not given here.

What was measured:
[1] = test system: Cldn1 and Ocln localization in 16HBE cultures; experiment: Immunofluorescence of TJ proteins (Cldn1, Ocln) and labeled peptides in 16HBE cultures; format: cell-based, Human; conditions: for Cldn1 and Ocln localization: 12 hours after exposure; for co-localization of labeled peptide with endogenous Cldn1: 2.4 μM, 4 hours exposure
Protocol: For immunohistochemical labeling, cells were plated at a density of 1.2×10^5 cells per 1.2 cm^2 coverslip in a 12-well plate and cultured in DMEM containing 10% heat-inactivated fetal bovine serum for 4-5 days. One day before peptide exposure, media was changed to DMEM/1% serum. Cells were exposed to peptide for 4 or 12 hours at 37° C. Cover slips were washed three times with PBS containing calcium (Gibco), fixed in cold methanol and blocked with 1% bovine serum albumin before staining Fluorophor was conjugated to propargyl-glycine labeled peptides using a ClickIt EdU kit according to the manufacturer's instructions (omitting cell exposure to EdU). For immunofluorescent staining, cells were incubated for one hour with primary antibodies (1:500 polyclonal anti-claudin 1 antibody and 1:400 monoclonal anti-occludin), washed with PBS and stained with Alexafluor®-488 anti-rabbit and Alexafluor®-568 anti-mouse secondary antibodies (1:1000). […] Coverslips were mounted in Vectastain containing DAPI and imaged on an Olympus BX60 fluorescence microscope. Cldn1 and Ocln images were taken using SPOT software with no further digital manipulation.

[2] = test system: influenza hemagglutinin (HA); experiment: Intranasal immunization with influenza hemagglutinin (HA); conditions: mice; for serum antibody titers to HA: day 18, 28 and 35; for HA-specific antibodies (IgG and IgA) in bronchial lavage: day 48
Protocol: Immunization experiments with influenza hemagglutinin were carried out as follows. Mice (4 mice per group) were treated in the nasal cavity with vehicle alone (0.006% Pluronic F127 in saline), vehicle plus influenza hemagglutinin (HA), or vehicle plus HA plus a permeabilizing agent (peptides 1A or 2A, or semen-derived enhancer of virus infection (SEVI)). Antibody titers to HA in serum were assessed at day 18, 28, and 35 after treatment, and HA-specific IgG and IgA were determined in bronchial lavage at day 48 post treatment.

16HBE TJs [3] = experiment: Transepithelial electrical resistance (TER) of 16HBE tight junction barrier, peptides applied apically; format: cell-based, Human; conditions: for drop in TER: 2.4 μM peptide; for recovery of barrier function (TER) after peptide removal: 0.024 to 12 μM, washout and further 24 h incubation; for effect of unrelated peptides on TER: 2-12 μM; for barrier disruption by labeled peptides, measured by decreased TER: representative experiment (n=2)
Protocol: Before use, peptide fibrils were prepared in sterile, filtered phosphate buffered saline containing 0.12% Pluronic F-127® by sonication at 55° C. for 20 minutes. Peptide concentrations were determined by BCA assay (Pierce). 20× peptide stocks were prepared in 0.12% pluronic F-127/PBS, then diluted 20× into phosphate buffer, PBS or DMEM containing 1% heat-inactivated fetal bovine serum and incubated at 37° C. for 18-24 hours before cell exposure or biophysical analysis, maintaining a constant surfactant concentration (0.006% Pluoronic® F127) for vehicle and peptide samples.
(§1) Human bronchial epithelial cells (16HBE) were grown on collagen-coated polystyrene in DMEM containing 10% heat inactivated fetal bovine serum, 10 mM HEPES, penicillin, streptomycin, and amphotericin with fresh media every 2-3 days. Cells were plated at the indicated density and grown for the indicated period. Peptides were diluted 20× into DMEM (Gibco #31053 containing 2 mM L-glutamine but lacking phenol red) containing 1% heat-inactivated fetal bovine serum and incubated at 37° C. for 18 hours before exposure. Pluronic F-127 concentrations (0.006% in cell culture media) were consistent between vehicle controls and peptide-containing samples. Cells were acclimated to the same media for 18 hours before peptide exposure.
(§2) For transepithelial electrical resistance (TER) and permeability experiments, the results of which are shown in FIGS. 4A-4B, respectively, cells were plated at a density of 75,000 per 0.33 cm^2 transwell (Corning TW, […], polyester) and grown for 5-6 days before acclimation/peptide exposure. TER measurements were taken with chopstick electrodes using a World Precision Instruments voltohmeter, and are expressed as the measured (cellular resistance—resistance of a TW insert with no cells)/surface area of the TW insert. TER was measured before peptide exposure (time=0) and at the indicated time points thereafter. After the 24 hour measurement, a control TW was lysed with 1% Triton X-100. For permeability flux assay, 1/10 volume of 0.2% sodium fluorescein or a mixture of 40 kD FITC-dextran (600 μg/mL final apical concentration) and Alexafluor®-568 labeled Synagis monoclonal antibody was added to the apical chamber and cells were incubated at 37° C. for 30 minutes or 18 hours. Synagis monoclonal antibody was labeled with Alexafluor®-568-succinimidyl ester according to the manufacturer's instructions, unreacted fluorophor removed using centrifugal filtration, and labeled antibody resuspended in PBS containing FITC-labeled 40 kD dextran. Fluorescence in the basolateral media was read in a Tecan M1000 fluorescence plate reader using Greiner μ-clear bottom 384-well plates (λex=494 nm and λem=512 nm for fluorescein and FITC-dextran and λex=578 nm and λem=605 nm for Alexafluor®-568 using a 10 nm slit width). Error is presented as the standard error of the mean, and significance relative to the vehicle control indicated where P<0.05 using a two-tailed t-test. For TER and fluorescein permeability experiments, n=8. For barrier recovery after peptide washout and FD-40 and Alexafluor®-labeled monoclonal antibody (“AF-mAb”) permeability, n=4.
Human bronchial epithelial cells (16HBE) were used to model TJ barrier function. 16HBE cells develop a TJ barrier (transepithelial electrical resistance, TER=800-1500 Ω*cm^2 in 10% heat-inactivated calf serum) that persists for 14 days. 16HBE cells serve as a more robust epithelial TJ barrier model than primary human keratinocytes, which achieve varying degrees of terminal differentiation (e.g. TJ barrier function) and this declines within 24 hours. In the low serum media used for peptide exposure, 16HBE cells achieved 350-500 Ω*cm^2 TER which was stable for 3-4 days. Cell surface expression of Cldn1, Cldn4, Ocln, and ZO-1 were consistently observed by immunofluorescence staining (FIGS. 2A-2B).

nasal cavity = experiment: Luciferase permeability experiment in mouse nasal cavity; format: in vivo; conditions: mice, intranasal peptide, luciferase applied after 12 or 24 hours
Protocol: Luciferase permeability experiments were carried out as follows. […] After 12 or 24 hours, a solution of 10 micrograms luciferase was applied. Mice were then imaged at various time points to determine the amount of luciferase remaining in the nasal cavity.

16HBE cells = experiment: WST1 cytotoxicity assay in 16HBE cells; format: cell-based, Human; conditions: for WST1 metabolism (cytotoxicity) of equilibrated peptides: 16HBE sub-confluent, 0.024-12 μM, 1, 4, 12 or 24 hour exposure; for concentration of freshly diluted peptide at which cytotoxicity was observed (WST1): 16HBE, stocks diluted and added without incubation, 12 h exposure
Protocol: For cytotoxicity measurements, cells were plated with a density of 7,500 per well in a 96-well plate and grown for one day before acclimation in DMEM containing 1% heat-inactivated fetal bovine serum. Cells were exposed to vehicle or peptide for 4, 12 or 24 hours. Control cells were lysed with 1% Triton X-100 for 15 minutes as a negative control. 10× WST1 stock (Clontech) was added to each well, and cells incubated for 12 minutes at 37° C. Media was removed and WST1 absorbance immediately read on a Perkin Elmer UV/Vis plate reader (WST1 A450−background A620). Error is presented as the standard error of the mean, and significance relative to the untreated control indicated (P<0.05). For cytotoxicity experiments, n=4. Representative data is presented.

16HBE TJs [4] = experiment: Permeability flux assay (sodium fluorescein, FITC-dextran FD-40, labeled Synagis mAb) across 16HBE cultures; format: cell-based, Human; conditions: for increase in FITC-dextran 40 kDa (FD-40) permeability / increase in fluorescein (0.4 kDa) permeability: 24 hours exposure, relative to vehicle
Protocol: as §1, §2

[5] = test system: Caco-2, HEK-293, and rat perineural TJ barriers; conditions: Caco-2, HEK-293, rat perineural in vivo; cited from earlier work
[6] = for comparison; cited from earlier work
[7] = test system: T84 (transplantable human carcinoma) cells; conditions: cited from earlier work

H-SSVSQSTGQIQSKVFDSLLNLSSTLQATR-NH2 [Peptide 1a]
Cldn1 and Ocln localization [1]: disturbed
serum antibody titers to HA [2]: trend of enhancement
HA-specific antibodies (IgG and IgA) in bronchial lavage [2]: trend of enhancement
drop in TER (16HBE TJs [3]; 16HBE, 24 hours): 65.9±6.9%
time to statistically significant (P<0.05) decrease in TER (16HBE TJs [3]; 16HBE, 12 μM peptide): ≤ 8 h
recovery of barrier function (TER) after peptide removal (16HBE TJs [3]; 16HBE): barrier function recovers
lowest concentration giving a statistically significant (P<0.05) decrease in TER (16HBE TJs [3]; 16HBE, by 24 hours): 240 nM
luciferase lost from the nasal cavity (nasal cavity): trend of higher amounts of luciferase lost from the nasal cavity
WST1 metabolism (cytotoxicity) of equilibrated peptides (16HBE cells): No alterations in WST1 metabolism
concentration of freshly diluted peptide at which cytotoxicity was observed (WST1) (16HBE cells): 1200 nM
enhancement of labeled therapeutic antibody (Synagis, 168 kD) penetration (16HBE TJs [4]; 2.4 μM peptide): 2.5±0.2 fold
increase in FITC-dextran 40 kDa (FD-40) permeability (16HBE TJs [4]; 2.4 μM peptide): 11.2±0.9 fold
increase in fluorescein (0.4 kDa) permeability (16HBE TJs [4]; 2.4 μM peptide): 4.1±0.9 fold
enhancement of labeled therapeutic antibody (Synagis, 168 kD) penetration (16HBE TJs [4]; 12 μM peptide): 3.2±0.4 fold
increase in FITC-dextran 40 kDa (FD-40) permeability (16HBE TJs [4]; 12 μM peptide): 16.8±1.9 fold
increase in fluorescein (0.4 kDa) permeability (16HBE TJs [4]; 12 μM peptide): 6.7±1.3 fold

Rat Cldn1 (53-81, C54,64S) peptide: rat claudin-1 peptide with Cys to Ser, of Zwanziger et al. (SSVSQSTGQIQSKVFDSLLNLNSTLQATR; UniProt P56745 53-81, looked up, variant C54S C64S)
concentration disrupting TJ barriers [5]: 200 to 300 µM

Aβ40: unrelated peptide tested in the same concentration range [reference compound]
effect of unrelated peptides on TER (16HBE TJs [3]; 16HBE): did not decrease TER

SILTGVSTLDQSLKQLSNFSQAVSTQSSR [Peptide 2b, labeled scrambled peptide 2 with N-terminal biotin-N-propargyl glycine tag]
co-localization of labeled peptide with endogenous Cldn1 [1]: co-localize with endogenous Cldn1
barrier disruption by labeled peptides, measured by decreased TER (16HBE TJs [3]; 16HBE): cause disruption of barrier

FKFEFKFE-NH2 [(FKFE)2, unrelated peptide tested in the same concentration range, reference compound]
effect of unrelated peptides on TER (16HBE TJs [3]; 16HBE): did not decrease TER

Aβ42: Amyloid Beta-Peptide 1-42 [reference compound]
critical concentration (Cr) [6]: about 1 μM
TJ disruption (16HBE TJs [3]; 2.4 μM): disrupt TJs, but to a lesser extent than peptides 1a and 2a

rat Cldn1 (53-80) peptide: rat claudin-1 extracellular loop peptide of Mrsny et al. (SCVSQSTGQIQCKVFDSLLNLNSTLQAT; UniProt P56745 53-80, looked up, fragment)
concentration able to disrupt intact TJs [7]: 200 µM
concentration shown to inhibit calcium-induced TJ formation [7]: 25 µM

SSVSQSTGQIQSKVFDSLLNLSSTLQATR [Peptide 1b, labeled peptide 1 with N-terminal biotin-N-propargyl glycine tag]
co-localization of labeled peptide with endogenous Cldn1 [1]: co-localize with endogenous Cldn1
barrier disruption by labeled peptides, measured by decreased TER (16HBE TJs [3]; 16HBE): cause disruption of barrier

H-SILTGVSTLDQSLKQLSNFSQAVSTQSSR-NH2 [Peptide 2a]
Cldn1 and Ocln localization [1]: disturbed
serum antibody titers to HA [2]: trend of enhancement
HA-specific antibodies (IgG and IgA) in bronchial lavage [2]: trend of enhancement
drop in TER (16HBE TJs [3]; 16HBE, 24 hours): 80±2.4%
decrease in TER (16HBE TJs [3]; 16HBE, 12 μM peptide, 24 hours): 92±1.6%
recovery of barrier function (TER) after peptide removal (16HBE TJs [3]; 16HBE): barrier function recovers
WST1 metabolism (cytotoxicity) of equilibrated peptides (16HBE cells): No alterations in WST1 metabolism
concentration of freshly diluted peptide at which cytotoxicity was observed (WST1) (16HBE cells): 200 nM
enhancement of labeled therapeutic antibody (Synagis, 168 kD) penetration (16HBE TJs [4]; 2.4 μM peptide): 4.9±0.4 fold
increase in FITC-dextran 40 kDa (FD-40) permeability (16HBE TJs [4]; 2.4 μM peptide): 25.3±1.6 fold
increase in fluorescein (0.4 kDa) permeability (16HBE TJs [4]; 2.4 μM peptide): 5.6±0.4 fold
enhancement of labeled therapeutic antibody (Synagis, 168 kD) penetration (16HBE TJs [4]; 12 μM peptide): 5.6±0.9 fold
increase in FITC-dextran 40 kDa (FD-40) permeability (16HBE TJs [4]; 12 μM peptide): 30.5±3.0 fold
increase in fluorescein (0.4 kDa) permeability (16HBE TJs [4]; 12 μM peptide): 16.4±2.2 fold
